Measured values from US9340577B2, “HLA binding motifs and peptides and their uses” (priority 1992, dated 2016).
No end group written: not given here.

Key:
Assay in all cases: biochemical
DRB1*1201 = DRB1*1201 (Homo sapiens, UniProt P01903+P01911, A100R/A169T/D57E/D86V/F55L/H45Y/K41T/L162R/M171V/P40S/Q125H/Q178H/Q39Y/Q99D/R42G/S66L/T262R/V114A/V67L/W38E/Y59H/Y61H/Y89S); format: binding
DRB1*0301 = DRB1*0301 (Homo sapiens, UniProt P01903+P01911, A100K/A102G/A103R/A169T/F55Y/I96L/K41T/L162R/M171V/P40S/Q125H/Q178H/Q39Y/R42S/S66N/T106N/T262R/W38E/Y61H); format: binding
DRB1*1101 = DRB1*1101 (Homo sapiens, UniProt P01903+P01911, A100R/A169T/A87E/I96F/K41T/L162R/M171V/P40S/Q125H/Q178H/Q39Y/Q99D/R42S/S66Y/T262R/V115G/W38E); details: Binding affinity DRB1 *1101
DRB5*0101 = DRB5*0101 (Homo sapiens, UniProt P01903+Q30154); details: Binding affinity DRB5 *0101
DRB4*0101 = DRB4*0101 (Homo sapiens, UniProt P01903+P13762, G164S); format: binding
DRB1*0901 = DRB1*0901 (Homo sapiens, UniProt P01903+P01911, A100R/A103E/D57H/D86V/F55Y/F60I/F76Y/I96F/K127E/L162R/M171V/P40D/Q125H/Q99R/R33Q/R42F/S133A/S66N/T210M/V115G/W38K/Y107V/Y59G/Y89S); format: binding
DRB1*1501 = DRB1*1501 (Homo sapiens, UniProt P01903+P01911); format: binding
DR4w4 (DRB1*0401) = DR4w4 (DRB1*0401) (Homo sapiens, UniProt P01903+P01911, A100K/A169T/F76Y/I96L/K127E/L162R/M171V/N62H/P40V/Q125Y/R42H/S133A/S149N/S66Y/V115G/V209L/W38E); format: binding
DRB1*1302 = DRB1*1302 (Homo sapiens, UniProt P01903+P01911, A100E/A169T/K41T/L162R/M171V/P40S/Q125H/Q178H/Q39Y/Q99D/R42S/S66N/T262R/V115G/W38E/Y61H); format: binding
DRB1*0405 = DRB1*0405 (Homo sapiens, UniProt P01903+P01911, A100R/A169T/D86S/F76Y/I96L/K127E/L162R/M171V/N62H/P40V/Q125Y/R42H/S133A/S149N/S66Y/V115G/V209L/W38E); format: binding
DR1 (DRB1*0101) = DR1 (DRB1*0101) (Homo sapiens, UniProt P01903+P01911, A100R/D57E/F55L/F60I/F76Y/I96L/L162R/M171V/P40L/Q125E/R42F/V115G/Y59C); format: binding
DR7 (DRB1*0701) = DR7 (DRB1*0701) (Homo sapiens, UniProt P01903+P01911, A100R/A102G/A103Q/D57E/D86V/E43K/F76Y/K127E/L162R/M171V/P40G/Q125H/Q99D/R33Q/R42Y/R54Q/S133A/S66F/T210M/V115G/Y107V/Y59L/Y89S); format: binding
DRB1*0802 = DRB1*0802 (Homo sapiens, UniProt P01903+P01911, A100R/A103L/A169T/F76Y/H45Y/I96F/K41T/L162R/M171V/P40S/Q125H/Q178H/Q39Y/Q99D/R218S/R42G/S66Y/V115G/W38E); format: binding

Sequence of DRB1*1302 (P01903 26-254 limits assumed, other chains not shown): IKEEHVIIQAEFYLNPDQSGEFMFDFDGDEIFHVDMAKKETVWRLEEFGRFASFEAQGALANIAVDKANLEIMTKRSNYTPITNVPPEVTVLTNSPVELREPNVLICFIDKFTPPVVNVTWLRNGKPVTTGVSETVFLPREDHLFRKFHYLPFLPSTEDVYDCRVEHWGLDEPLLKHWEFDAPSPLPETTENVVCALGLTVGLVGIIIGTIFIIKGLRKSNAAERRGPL
Sequence of DRB1*1101 (P01903 26-254 limits assumed, other chains not shown): as above
Sequence of DRB1*0301 (P01903 26-254 limits assumed, other chains not shown): as above

Compound | IC50 (DRB1*1201) [nM] | IC50 (DRB1*0301) [µM] | IC50 (DRB1*1101) [µM] | IC50 (DRB5*0101) [µM] | IC50 (DRB4*0101) [nM] | IC50 (DRB1*0901) [µM] | IC50 (DRB1*1501) [nM] | IC50 (DR4w4 (DRB1*0401)) [nM] | IC50 (DRB1*1302) [nM] | IC50 (DRB1*0405) [nM] | IC50 (DR1 (DRB1*0101)) [nM] | IC50 (DR7 (DRB1*0701)) [µM] | IC50 (DRB1*0802) [µM]
CC[C@H](C)[C@H](NC(=O)[C@H](CO)NC(=O)[C@@H](NC(=O)CN)C(C)C)C(=O)N[C@@H](Cc1c[nH]c2ccccc12)C(=O)N[C@@H](CC(N)=O)C(=O)N1CCC[C@H]1C(=O)N[C@H](C(=O)N[C@@H](CC(C)C)C(=O)N[C@@H](CC(C)C)C(=O)N[C@@H](Cc1c[nH]c2ccccc12)C(=O)N[C@@H](CCC(N)=O)C(=O)N1CCC[C@H]1C(=O)N[C@H](C(=O)N1CCC[C@H]1C(=O)O)[C@@H](C)CC)[C@@H](C)CC [Peptide 68.0034] | 3900 | > 20 |  |  |  |  |  |  |  |  |  |  | 
CC[C@H](C)[C@H](NC(=O)[C@H](Cc1c[nH]c2ccccc12)NC(=O)[C@@H](NC(=O)[C@@H](NC(=O)[C@H](CO)NC(=O)[C@H](CC(C)C)NC(=O)[C@@H](N)[C@@H](C)O)C(C)C)[C@@H](C)O)C(=O)NCC(=O)N[C@@H](C)C(=O)N[C@@H](C)C(=O)N1CCC[C@H]1C(=O)N[C@@H](CC(C)C)C(=O)N[C@H](C(=O)N[C@@H](CC(C)C)C(=O)N[C@@H](CO)C(=O)O)[C@@H](C)CC [Peptide 68.0058] | 55 | > 20 |  |  |  |  |  |  |  |  |  |  | 
CC[C@H](C)[C@H](NC(=O)[C@H](CCC(N)=O)NC(=O)[C@@H](N)CCCNC(=N)N)C(=O)N[C@@H](Cc1ccc(O)cc1)C(=O)N[C@H](C(=O)N[C@@H](C)C(=O)N[C@@H](C)C(=O)N[C@@H](Cc1ccccc1)C(=O)N[C@H](C(=O)N[C@H](C(=O)N[C@@H](CCC(N)=O)C(=O)N[C@@H](C)C(=O)N[C@@H](C)C(=O)N[C@@H](C)C(=O)N[C@@H](CCC(=O)O)C(=O)O)C(C)C)[C@@H](C)O)C(C)C [Peptide 68.0134] | 609 | > 20 |  |  |  |  |  |  |  |  |  |  | 
LYGVSFMELIRPFQS [Peptide 89.0041] |  | > 20 | 0.039 | 6.04 | 2.2 | 0.064 | 1550 | 5210 | > 20000 | 1800 |  |  | 
CC[C@H](C)[C@H](NC(=O)[C@@H](N)CCC(N)=O)C(=O)N[C@@H](Cc1ccc(O)cc1)C(=O)N[C@H](C(=O)N[C@@H](C)C(=O)N[C@@H](C)C(=O)N[C@@H](Cc1ccccc1)C(=O)N[C@H](C(=O)N[C@H](C(=O)N[C@@H](CCC(N)=O)C(=O)N[C@@H](C)C(=O)N[C@@H](C)C(=O)N[C@@H](C)C(=O)N[C@@H](CCC(=O)O)C(=O)N[C@H](C(=O)O)[C@@H](C)O)C(C)C)[C@@H](C)O)C(C)C [Peptide 68.0135] | 934 | > 20 |  |  |  |  |  |  |  |  |  |  | 
CC[C@H](C)[C@H](NC(=O)[C@H](CC(C)C)NC(=O)[C@H](CCCCN)NC(=O)[C@H](CCCCN)NC(=O)[C@@H](N)Cc1ccc(O)cc1)C(=O)N[C@@H](CCSC)C(=O)N[C@@H](Cc1ccc(O)cc1)C(=O)N[C@@H](CO)C(=O)N[C@@H](C)C(=O)N[C@@H](Cc1c[nH]cn1)C(=O)N[C@@H](CC(=O)O)C(=O)N[C@H](C(=O)N[C@H](C(=O)N[C@H](C(=O)N[C@@H](CO)C(=O)O)C(C)C)[C@@H](C)O)[C@@H](C)O [Peptide 68.0049] | 928 | > 20 |  |  |  |  |  |  |  |  |  |  | 
CSCC[C@H](NC(=O)[C@@H]1CCCN1C(=O)[C@H](CC(=O)O)NC(=O)[C@@H](N)Cc1ccc(O)cc1)C(=O)N[C@@H](Cc1ccccc1)C(=O)N[C@@H](CCCCN)C(=O)N[C@@H](Cc1ccc(O)cc1)C(=O)N[C@@H](Cc1c[nH]cn1)C(=O)N[C@@H](CC(C)C)C(=O)N[C@H](C(=O)N[C@H](C(=O)N[C@@H](C)C(=O)N[C@@H](CCC(N)=O)C(=O)N[C@H](C(=O)N[C@@H](CCCNC(=N)N)C(=O)O)C(C)C)C(C)C)[C@@H](C)O [Peptide 68.0117] | 240 | > 20 |  |  |  |  |  |  |  |  |  |  | 
CC(C)C[C@H](NC(=O)[C@H](CO)NC(=O)[C@H](CC(C)C)NC(=O)[C@H](CO)NC(=O)[C@H](C)NC(=O)[C@H](C)NC(=O)[C@H](CCCNC(=N)N)NC(=O)[C@H](C)NC(=O)[C@H](CC(C)C)NC(=O)[C@H](CC(C)C)NC(=O)[C@H](CC(C)C)NC(=O)[C@@H]1CCCN1C(=O)[C@H](C)NC(=O)[C@H](C)N)C(=O)NCC(=O)O [Peptide 68.0019] | 564 | > 20 |  |  |  |  |  |  |  |  |  |  | 
AKLMSNLLSIPETCM [Peptide 89.0066] |  | 12.8 | 14.6 | > 20 | 421 | 9.14 | 3430 | 99 | 12 | 34 | 323 | 0.388 | > 20
CC[C@H](C)[C@H](NC(=O)[C@H](CCCNC(=N)N)NC(=O)[C@@H](N)[C@@H](C)O)C(=O)N[C@@H](Cc1ccc(O)cc1)C(=O)N[C@@H](CC(N)=O)C(=O)N[C@H](C(=O)N[C@H](C(=O)NCC(=O)N[C@H](C(=O)N[C@@H](CC(C)C)C(=O)N[C@@H](CCCNC(=N)N)C(=O)NCC(=O)N[C@@H](C)C(=O)N[C@H](C(=O)N[C@@H](CCC(=O)O)C(=O)O)C(C)C)[C@@H](C)O)[C@@H](C)CC)C(C)C [Peptide 68.0107] | 502 | > 20 |  |  |  |  |  |  |  |  |  |  | 
QHSFNDDIFDLSEMI [Peptide 90.0152] |  | 0.534 | 4.38 |  | 2.1 |  | 688 | 37 | 17 | 384 | 42 |  | 7.61
CC[C@H](C)[C@H](NC(=O)CNC(=O)[C@H](CCC(=O)O)NC(=O)[C@H](Cc1c[nH]cn1)NC(=O)[C@@H](NC(=O)[C@H](Cc1ccc(O)cc1)NC(=O)[C@H](Cc1ccc(O)cc1)NC(=O)[C@H](CC(C)C)NC(=O)CN)C(C)C)C(=O)N[C@@H](CCCNC(=N)N)C(=O)N[C@H](C(=O)N[C@@H](Cc1ccc(O)cc1)C(=O)N[C@@H](Cc1ccccc1)C(=O)N[C@H](C(=O)N[C@@H](CCC(N)=O)C(=O)O)C(C)C)[C@@H](C)O [Peptide 90.0171] |  | 0.689 | 5.36 | > 20 | 1.9 | 1 | 1620 | 668 | 532 | 4660 | 26 | 5.58 | 7.38
KIGMIDDVTPISWTY [Peptide 90.0087] |  | 0.07 | > 20 | > 20 | 3120 | > 20 | 4460 | 20 | 9.8 | > 20000 | 3220 | > 20 | 8.37
IIHLKGDKNSLKCLR [Peptide 90.0218] |  | 0.042 |  | 9.92 | 1440 |  | 137 | 347 | 1330 | 12700 |  |  | 
ETCMLIQPPKLRSSV [Peptide 89.0029] |  | > 20 |  |  | 81 | 19.5 | 1700 | 901 | 3050 | 1560 | 60 | 0.354 | 5.08
KHIRLLECVLMYKARE [Peptide 1601.44] |  | 0.072 | 0.613 | 1.63 | 39 | 7.48 | 74 | 67 | 418 | 236 | 120 | 6.7 | 1.77
